This test addresses CIP2A(1-560) (Homo sapiens, UniProt Q8TCG1). The test is described as follows: microscale thermophoresis. It is filed as binding. Background: Microscale thermophoresis detects binding through changes in fluorescence in a small temperature gradient.

With `CC(C)=CCC[C@]1(C)C=Cc2c(O)c3c(c(CC=C(C)C)c2O1)O[C@]12C(=C[C@@H]4C[C@H]1C(C)(C)O[C@@]2(C/C=C(/C)C(=O)N1CCOCC1)C4=O)C3=O` [DAP-19], the equilibrium dissociation constant (Kd) (commonly a measure of binding affinity in units of concentration) stood at 8.4 µM. The result for `CC(C)=CCC[C@]1(C)C=Cc2c(O)c3c(c(CC=C(C)C)c2O1)O[C@]12C(=C[C@@H]4C[C@H]1C(C)(C)O[C@@]2(C/C=C(/C)C(=O)O)C4=O)C3=O` [GIA, Gambogic acid] reads 4.6 µM.

As for `CC(C)=CCC/C(C)=C/Cc1c(O)c(CC=C(C)C)c2c(c1O)C(=O)C1=C[C@@H]3C[C@H]4C(C)(C)O[C@@](C/C=C(/C)C(=O)NCCCCCNC(=O)CCCC[C@@H]5SC[C@@H]6NC(=O)N[C@@H]65)(C3=O)[C@@]14O2` [bGNA, biotinylated gambogenic acid], binding was put at a Kd of 4.2 µM.

The values are drawn from publication doi:10.1101/2025.10.13.682046v1 (biorxiv, 2025).
